The test system of assay [1] is zinc-finger (ZF) degrons fused to GFP in U2OS cells. Description: Off-target degradation of ZF degrons by flow cytometry. The conditions noted are these: 32 nM to 20 μM, 24 h. It is filed as cell-based. In general terms: Flow cytometry measures light scatter and fluorescence of single cells or particles in a stream.
In assay [2] the target is GSPT1-GFP in HEK293T cells (Homo sapiens, UniProt P15170). The assay can be described thus: Off-target degradation of GSPT1 by flow cytometry. It counts as cell-based. The conditions noted are these: 24 h.
Assay [3] concerns the target His6-CRBN/DDB1 (Homo sapiens, UniProt Q96SW2). The assay can be described thus: TR-FRET ligand displacement assay. It counts as binding. The conditions noted are these: for fold difference in KD between POM and POM-cN: monofunctional compounds, POM binds more tightly. In general terms: Time-resolved FRET reads energy transfer from a long-lived donor to a nearby acceptor.

Assay [4] deals with BRD4 in HEK293T cells (Homo sapiens, UniProt O60885). The assay can be described thus: BRD4 degradation assay, western blot. The following applies: 4 h, 100 nM–10 μM dose-response. It counts as cell-based. On the technique in general: Immunoblotting shows a protein as a band on a membrane.
The target in assay [5] is endogenous BRD4 in MDA-MB-231 cells (Homo sapiens, UniProt O60885). It is filed as cell-based. The conditions noted are these: 5 h (Fig. 3b).
In assay [6] the target is BRD4(BD1)-GFP in HEK293T cells (Homo sapiens, UniProt O60885+Q96SW2). The assay can be described thus: TR-FRET quantification of BRD4. The conditions noted are these: for DC50: read-out: DC50(BD1), HEK293T BRD4(BD1)-GFP reporter cells.
Assay [7] addresses BRD4(BD2)-GFP in HEK293T cells (Homo sapiens, UniProt O60885+Q96SW2). The assay can be described thus: TR-FRET quantification of BRD4. The conditions noted are these: for DC50: read-out: DC50(BD2), HEK293T BRD4(BD2)-GFP reporter cells, 4 h.
Assay [8] has as its system His6-CRBN/DDB1 in the presence of GST-BRD4(BD1). The assay can be described thus: TR-FRET ternary complex / cooperativity assay with 1 μM BD1. The following applies: Alpha = KD,CRBN[binary]/KD,CRBN[ternary]. It counts as binding.
In assay [9] the test system is His6-CRBN/DDB1 in the presence of GST-BRD4(BD2). Description: TR-FRET ternary complex / cooperativity assay with 1 μM BD2. The following applies: Alpha = KD,CRBN[binary]/KD,CRBN[ternary]. It is filed as binding.
Assay [10] addresses BRD4 BD1 bromodomain. The conditions noted are these: read-out: KD for BD1; cited from earlier work.
Assay [11] addresses BRD4 BD2 bromodomain. The following applies: read-out: KD for BD2; cited from earlier work.
In assay [12] the target is His6-CRBN/DDB1–GST-BRD4(BD1) ternary complex (Homo sapiens, UniProt O60885+Q96SW2). Description: TR-FRET off-rate measurement of the ternary complex, BD1. It counts as binding. The conditions noted are these: BRD4 dissociation triggered by excess JQ1.

The values that follow come from PMC12136240 (Cell chemical biology, 2024).

Each structure is given as a SMILES string.

Take `Cc1sc2c(c1C)C(c1ccc(Cl)cc1)=N[C@@H](CC(=O)Nc1ccc(OCCOCCOCCOCCNc3cccc4c3C(=O)N(C3CCC(=O)NC3=O)C4=O)cc1)c1nnc(C)n1-2` (stereo partly drawn) [ARV-825]: the “degradation of C2H2 zinc finger targets including IKZF3 and ZFP91, in words” value in assay [1] was “fast and rapid degradation”. Also, in assay [2], the “Dmax, off-target degradation of GSPT1” value is reported as at most 1%.

For the molecule `Cc1sc2c(c1C)C(c1ccc(Cl)cc1)=N[C@@H](CC(=O)NCCCCCCCCC(=O)N[C@@H](Cc1ccccc1)C(=O)N[C@H]1CC(=O)NC1=O)c1nnc(C)n1-2` [JQ1-FcN], in assay [3] (read-out: KD against His6-CRBN/DDB1 (binary), competition binding with Thal-FITC), the Kd is below 100 nM. The “BRD4 degradation, western blot, in words” value in assay [4] is listed as “efficient degradation of BRD4 at a concentration of 100 nM”.

In the case of `Nc1cccc2c1C(=O)N(C1CC(=O)NC1=O)C2=O` (stereo not drawn) [POM-cN], the “fold difference in KD between POM and POM-cN” value in assay [3] is on record as ~ 500 fold.

Take `Nc1cccc2c1C(=O)N(C1CCC(=O)NC1=O)C2=O` (stereo not drawn) [POM, pomalidomide]: in assay [3], the “fold difference in KD between POM and POM-cN” value is given as ~ 500 fold.

Consider `Cc1sc2c(c1C)C(c1ccc(Cl)cc1)=N[C@@H](CC(=O)NCCCCCCCCC(=O)N[C@@H](C)C(=O)N[C@H]1CCC(=O)NC1=O)c1nnc(C)n1-2` [JQ1-AcQ], for which the “endogenous BRD4 degradation potency, in words” value in assay [5] is recorded as “one of the most potent BRD4 degraders”. Further, the DC50 in assay [6] (4 h) worked out at 41 nM; in [7], 78 nM.

Take `Cc1sc2c(c1C)C(c1ccc(Cl)cc1)=N[C@@H](CC(=O)NCCCCCCCCNC(=O)COc1cccc3c1C(=O)N(C1CCC(=O)NC1=O)C3=O)c1nnc(C)n1-2` (stereo partly drawn) [dBET6]: the “cooperativity with BRD4(BD1), in words” value in [8] is on record as “negative cooperativity”. Moreover, the “cooperativity with BRD4(BD2), in words” value in [9] is on record as “negative cooperativity”. The “Dmax, off-target degradation of ZF degrons” value in assay [1] is “≈ 6%”. Also, the “Dmax, off-target degradation of GSPT1” value in [2] is given as at most 9%.

Turning to `Cc1sc2c(c1C)C(c1ccc(Cl)cc1)=N[C@@H](CC(=O)OC(C)(C)C)c1nnc(C)n1-2` [JQ1], the Kd is 50 nM in assay [10] and 90 nM in assay [11].

Turning to `Cc1sc2c(c1C)C(c1ccc(Cl)cc1)=N[C@@H](CC(=O)NCCCCCCCCC(=O)N[C@@H](Cc1ccc(O)cc1)C(=O)N[C@H]1CCC(=O)NC1=O)c1nnc(C)n1-2` [JQ1-YcQ], in assay [12], the “stability of the ternary complex with BRD4(BD1), in words” value is “most stable and long-lived complexes”. Further, the “time to reach maximum level of degradation (Dmax), BRD4(BD1)” value in [6] (HEK293T BRD4(BD1)-GFP cells) was determined as 1.5 h. Further, the “fold difference in DC50 between BD1 and BD2” value in assay [6] (HEK293T reporter cells, 4 h, more potent on BD1) is given as 5–10 fold. For the same molecule, the DC50 in [6] (4 h) worked out at 103 nM; in assay [7], 513 nM. Moreover, the “time to reach maximum level of degradation (Dmax), BRD4(BD2)” value in assay [7] (HEK293T BRD4(BD2)-GFP cells) stood at 3 h.
